Experimental data taken from PubChem BioAssay (NCI).
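Five compound concentrations were applied to cells in 96-well plates for 48 hours; endpoints were derived by simple linear interpolation of the resulting dose-response curve. Abbreviation: GI50, concentration required for 50% inhibition of growth. TGI: total growth inhibition.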

Legend:
Test in all cases: inhibition of tumour cell growth, NCI panel, 48 h
MDA-MB-435 = system: MDA-MB-435
OVCAR-3 ovarian = system: OVCAR-3 ovarian
KM12 colon = system: KM12 colon
NCI/ADR-RES ovarian = system: NCI/ADR-RES ovarian
SW-620 colon = system: SW-620 colon
MCF7 breast = system: MCF7 breast
UACC-257 melanoma = system: UACC-257 melanoma
HS 578T breast = system: HS 578T breast
RPMI-8226 leukemia = system: RPMI-8226 leukemia
HOP-92 NSCLC = system: HOP-92 NSCLC

| SMILES | GI50 (MDA-MB-435) [µM] | TGI (MDA-MB-435) [µM] | GI50 (OVCAR-3 ovarian) [µM] | TGI (OVCAR-3 ovarian) [µM] | GI50 (KM12 colon) [µM] | TGI (KM12 colon) [µM] | GI50 (NCI/ADR-RES ovarian) [µM] | TGI (NCI/ADR-RES ovarian) [µM] | GI50 (SW-620 colon) [µM] | TGI (SW-620 colon) [µM] | GI50 (MCF7 breast) [µM] | TGI (MCF7 breast) [µM] | GI50 (UACC-257 melanoma) [µM] | TGI (UACC-257 melanoma) [µM] | GI50 (HS 578T breast) [µM] | TGI (HS 578T breast) [µM] | GI50 (RPMI-8226 leukemia) [µM] | TGI (RPMI-8226 leukemia) [µM] | GI50 (HOP-92 NSCLC) [µM] | TGI (HOP-92 NSCLC) [µM] |
| --- | --- | --- | --- | --- | --- | --- | --- | --- | --- | --- | --- | --- | --- | --- | --- | --- | --- | --- | --- | --- |
| COC(=O)c1c2c(c(C)[n+]([O-])c1C)C(=O)C(NCc1ccc(OC)cc1)=CC2=O | 1.73 | 3.15 | 0.315 | 1.2 | 2.19 | 8.68 | 2.42 | 7.49 | 1.95 | 4.26 | 1.41 | 3.35 | 1.63 | 3.42 | 3.81 | 36.6 | 2.41 | 7.78 | 2.64 | 5.91 |
| CC1(C)N=C(N)N=C(N)N1c1ccc(OCCCNC(=O)Nc2ccc(S(=O)(=O)F)cc2)c(Cl)c1 | 0.143 | > 100 | 1.55 | > 100 | 0.504 | > 100 | 98.5 | > 100 | 0.0778 | > 100 | 0.238 | > 100 | 5.11 | > 100 | 4.6 | > 78.8 | 1.64 | > 75 | 2.74 | 61.9 |
| ClC1=C(Cl)C(Cl)(C2(Cl)C(Cl)=C(Cl)C(Cl)=C2Cl)C(Cl)=C1Cl | 0.67 | 2.13 | 0.199 | 0.417 | 2.04 | 4.32 | 0.976 | 5.61 | 0.19 | 0.391 | 0.241 | 0.921 | 0.543 | 1.84 | 2.22 | 6.43 | 0.252 | 0.696 | 0.175 | 0.437 |
| COC(=O)C(=O)C(C(=O)C(=O)Nc1ccc(Cl)c(Cl)c1)c1nc2ccc(C(=O)c3ccccc3)cc2[nH]c1=O (centres undefined) |  | > 100 |  | > 100 |  | > 100 |  | > 100 |  | > 100 |  | > 100 |  | > 100 |  | > 100 |  | > 100 |  | > 100 |
| CN(C)CCNC(=O)c1cc2c3cc(Cl)ccc3[nH]c2c2ncccc12 | 1.95 | 4.22 | 11.1 | 29.6 | 3.03 | 13.7 | 5.4 | 20.8 | 1.47 | 3.52 | 1.8 | 4.78 | 3.92 | 14.9 | 1.87 | 9.66 | 1.78 | 3.84 | 2.36 | 11.2 |
| COC(=O)[C@@H](C)C[C@H](Cc1ccccc1)NC(=O)c1nc([C@@H](C[C@H](C(C)C)N(C)C(=O)[C@@H](NC(=O)[C@H]2C[C@H](O)CCN2C)C(C)C)OC(C)=O)sc1C(C)C | < 0.00111 | 0.00288 | 0.00148 |  | 0.00473 | > 3.95 | 2.29 | > 11.1 | 0.00533 | > 11.1 | < 0.00111 | > 11.1 | 5.89 | > 11.1 | 0.0122 | > 8.26 | 0.00173 | > 9.92 | 0.00491 | 7.05 |
| CN1C(=O)C(c2c[nH]c3ccccc23)=C(c2c[nH]c3ccccc23)C1=O | 5.49 | 16.2 | 7.03 | > 25 | 5.66 | > 21.3 | 6.66 | > 25 | 5.78 | > 25 | 5.24 | > 24.1 | 7.65 | 24.8 | 5.18 | 21.3 | 6.84 | 25 | 3.08 | 13.3 |
| Cc1c2cnccc2c(C)c2c1c1ccccc1n2CCOC(=O)c1ccccc1 |  | > 100 |  | 28.8 |  | > 98 |  | 33 |  | 53.7 |  | 44.1 |  | 42 |  | 84.6 |  | 42 |  | 71.9 |
| CC(C)=CC[C@@H]1CC2(CC=C(C)C)C(=O)C(OC3(C(=O)c4ccccc4)C(=O)C4(CC=C(C)C)C[C@@H](CC=C(C)C)C(C)(C)C(CC=C(C)C)(C4=O)C3=O)(C(=O)c3ccccc3)C(=O)C(CC=C(C)C)(C2=O)C1(C)C (some centres undefined) | 1.41 | 4.46 | 1.24 | 3.25 | 1.65 | 6.13 | 1.6 | 5.67 | 1.92 | 8.29 | 1.37 | 5.85 | 1.4 | 3.77 | 1.6 | 4.67 | 1.05 | 2.7 | 1.08 | 2.86 |
| Sc1cccc2cccnc12 | 2.66 | 20.5 | 0.467 | 8.01 | 0.874 | 12.1 | 0.955 | 9.21 | 1.07 | 16.2 | 0.484 | 11.6 | 1.37 | 12.3 | 2.81 | 16.4 | 2.9 | 30.3 | 7.11 | 20.5 |
| N#CC1=C(N)Oc2c(sc3c(Br)cccc23)C1c1ccc([N+](=O)[O-])cc1 (centres undefined) | 0.0206 | 0.0807 | 0.0403 | 0.849 | 0.0997 | 9.36 | 0.0398 | 8.37 | 0.0708 | 14.5 | 0.151 | 11.6 | 11.4 | 27.5 | 0.0774 | 16.4 | 0.116 | 6.49 | 0.0441 | 8.82 |
| O=c1c2ccccc2nc(-c2cccc([N+](=O)[O-])c2)n1O |  | > 100 |  | > 94.3 |  | > 100 |  | > 87.4 |  | > 100 |  | > 100 |  | > 100 |  | > 100 |  | > 33.7 |  | > 75.1 |
| O=C(N/N=C/c1ccc(Cl)cc1)c1ccc(NC(=O)c2ccccn2)cc1 | 23.8 | > 100 | 14 | 33.6 | 31 | > 100 | 16.2 | > 100 | 59 | > 100 | 47.3 | > 100 | > 100 | > 100 | 21.1 | > 100 | > 100 | > 100 | 5.23 | 53.2 |
